Columns and labels:
Assay in all cases: CelltiterGlo viability cell assay
Type in all cases: cell-based
HCC1806 = details: HCC1806, 6 day
Description: (§1) Supplementary Figure 13. […] Viability of
(§2) (a) Multiple Myeloma lines and (b) Breast Cancer cell lines following 3 or 6 days treatment with […]
(§3) manufacturer’s instructions as described in the Supplementary methods. Data are normalized to DMSO control. N=3 biological replicates, +/- SEM. Source data are provided as a Source Data […]
(§4) CelltiterGlo viability cell assay
(§5) Cells were seeded in 96 well plates at per-well densities of 10000 (MDA-MB436, ATCC-HTB130), 15000 (8226, kind gift from Rodger Tiedemann, Princess Margaret Cancer Centre), […]
(§6) kind gift from Rodger Tiedemann, Princess Margaret Cancer Centre) and 50000 (CAL851, kind gift from Mathieu Lupien, Princess Margaret Cancer Centre) and were treated at increasing concentrations of compounds ranging from 0.01 μM to 30 μM and assessed for proliferation using CelltiterGlo (Promega) following manufacturer’s instructions, as readout on days 3 and 6 as indicated. All cell lines were mycoplasma negative, as determined by MycoAlert™ Mycoplasma Detection Kit(Lonza). […]

SKMM2 = tested on: SKMM2
Description: as §1, §2, §3, §4, §5, §6

RPMI-8226 = details: 8226, 3 day, 0.01 uM
Description: as §1, §2, §3, §4, §5, §6

COc1cc(OC)cc(-c2noc(N3CCN(C)C4(CCN(c5ccccc5)CC4)C3)n2)c1 [MRK-740N]
viability Replicate 2 (HCC1806; 0.03 uM): 102.60
viability Replicate 3 (HCC1806; 0.03 uM): 107.42
viability Average (HCC1806; 0.1 uM): 107.97
viability Replicate 1 (HCC1806; 0.1 uM): 107.96
viability Replicate 2 (HCC1806; 0.1 uM): 108.22
viability Replicate 3 (HCC1806; 0.1 uM): 107.74
viability Average (HCC1806; 0.3 uM): 112.99
viability Replicate 1 (HCC1806; 0.3 uM): 109.14
viability Replicate 2 (HCC1806; 0.3 uM): 116.56
viability Replicate 3 (HCC1806; 0.3 uM): 113.26
viability Average (HCC1806; 1 uM): 115.10
viability Replicate 1 (HCC1806; 1 uM): 111.79
viability Replicate 2 (HCC1806; 1 uM): 117.79
viability Replicate 3 (HCC1806; 1 uM): 115.71
viability Average (HCC1806; 3 uM): 114.65
viability Replicate 1 (HCC1806; 3 uM): 112.70
viability Replicate 2 (HCC1806; 3 uM): 114.15
viability Replicate 3 (HCC1806; 3 uM): 117.09
viability Average (HCC1806; 9.5 uM): 110.91
viability Replicate 1 (HCC1806; 9.5 uM): 107.82
viability Replicate 2 (HCC1806; 9.5 uM): 111.79
viability Replicate 3 (HCC1806; 9.5 uM): 113.11
viability Average (HCC1806; 30 uM): 35.99
viability Replicate 1 (HCC1806; 30 uM): 27.63
viability Replicate 2 (HCC1806; 30 uM): 38.19
viability Replicate 3 (HCC1806; 30 uM): 42.14
viability Average (SKMM2; SKMM2, 3 day, 0.01 uM): 99.67
viability Replicate 1 (SKMM2; SKMM2, 3 day, 0.01 uM): 98.81
viability Replicate 2 (SKMM2; SKMM2, 3 day, 0.01 uM): 100.27
viability Replicate 3 (SKMM2; SKMM2, 3 day, 0.01 uM): 99.94
viability Average (SKMM2; SKMM2, 3 day, 0.03 uM): 99.81
viability Replicate 1 (SKMM2; SKMM2, 3 day, 0.03 uM): 100.19
viability Replicate 2 (SKMM2; SKMM2, 3 day, 0.03 uM): 99.28
viability Replicate 3 (SKMM2; SKMM2, 3 day, 0.03 uM): 99.96
viability Average (SKMM2; SKMM2, 3 day, 0.1 uM): 99.75
viability Replicate 1 (SKMM2; SKMM2, 3 day, 0.1 uM): 99.33
viability Replicate 2 (SKMM2; SKMM2, 3 day, 0.1 uM): 101.27
viability Replicate 3 (SKMM2; SKMM2, 3 day, 0.1 uM): 98.65
viability Average (SKMM2; SKMM2, 3 day, 0.3 uM): 100.91
viability Replicate 1 (SKMM2; SKMM2, 3 day, 0.3 uM): 100.74
viability Replicate 2 (SKMM2; SKMM2, 3 day, 0.3 uM): 101.32
viability Replicate 3 (SKMM2; SKMM2, 3 day, 0.3 uM): 100.69
viability Average (SKMM2; SKMM2, 3 day, 1 uM): 99.32
viability Replicate 1 (SKMM2; SKMM2, 3 day, 1 uM): 99.24
viability Replicate 2 (SKMM2; SKMM2, 3 day, 1 uM): 100.37
viability Replicate 3 (SKMM2; SKMM2, 3 day, 1 uM): 98.34
viability Average (SKMM2; SKMM2, 3 day, 3 uM): 97.16
viability Replicate 1 (SKMM2; SKMM2, 3 day, 3 uM): 96.17
viability Replicate 2 (SKMM2; SKMM2, 3 day, 3 uM): 98.52
viability Replicate 3 (SKMM2; SKMM2, 3 day, 3 uM): 96.79
viability Average (SKMM2; SKMM2, 3 day, 9.5 uM): 95.36
viability Replicate 1 (SKMM2; SKMM2, 3 day, 9.5 uM): 96.79
viability Replicate 2 (SKMM2; SKMM2, 3 day, 9.5 uM): 94.04
viability Replicate 3 (SKMM2; SKMM2, 3 day, 9.5 uM): 95.26
viability Average (SKMM2; SKMM2, 3 day, 30 uM): 58.34
viability Replicate 1 (SKMM2; SKMM2, 3 day, 30 uM): 67.94
viability Replicate 2 (SKMM2; SKMM2, 3 day, 30 uM): 41.11
viability Replicate 3 (SKMM2; SKMM2, 3 day, 30 uM): 65.95
viability Average (SKMM2; SKMM2, 6 day, 0.01 uM): 99.21
viability Replicate 1 (SKMM2; SKMM2, 6 day, 0.01 uM): 91.53
viability Replicate 2 (SKMM2; SKMM2, 6 day, 0.01 uM): 105.08
viability Replicate 3 (SKMM2; SKMM2, 6 day, 0.01 uM): 101.01
viability Average (SKMM2; SKMM2, 6 day, 0.03 uM): 96.26
viability Replicate 1 (SKMM2; SKMM2, 6 day, 0.03 uM): 90.23
viability Replicate 2 (SKMM2; SKMM2, 6 day, 0.03 uM): 98.46
viability Replicate 3 (SKMM2; SKMM2, 6 day, 0.03 uM): 100.08
viability Average (SKMM2; SKMM2, 6 day, 0.1 uM): 98.07
viability Replicate 1 (SKMM2; SKMM2, 6 day, 0.1 uM): 90.96
viability Replicate 2 (SKMM2; SKMM2, 6 day, 0.1 uM): 102.71
viability Replicate 3 (SKMM2; SKMM2, 6 day, 0.1 uM): 100.56
viability Average (SKMM2; SKMM2, 6 day, 0.3 uM): 97.57
viability Replicate 1 (SKMM2; SKMM2, 6 day, 0.3 uM): 90.30
viability Replicate 2 (SKMM2; SKMM2, 6 day, 0.3 uM): 102.21
viability Replicate 3 (SKMM2; SKMM2, 6 day, 0.3 uM): 100.20
viability Average (SKMM2; SKMM2, 6 day, 1 uM): 94.68
viability Replicate 1 (SKMM2; SKMM2, 6 day, 1 uM): 89.98
viability Replicate 2 (SKMM2; SKMM2, 6 day, 1 uM): 95.60
viability Replicate 3 (SKMM2; SKMM2, 6 day, 1 uM): 98.45
viability Average (SKMM2; SKMM2, 6 day, 3 uM): 95.79
viability Replicate 1 (SKMM2; SKMM2, 6 day, 3 uM): 90.06
viability Replicate 2 (SKMM2; SKMM2, 6 day, 3 uM): 96.19
viability Replicate 3 (SKMM2; SKMM2, 6 day, 3 uM): 101.13
viability Average (SKMM2; SKMM2, 6 day, 9.5 uM): 94.06
viability Replicate 1 (SKMM2; SKMM2, 6 day, 9.5 uM): 88.71
viability Replicate 2 (SKMM2; SKMM2, 6 day, 9.5 uM): 96.00
viability Replicate 3 (SKMM2; SKMM2, 6 day, 9.5 uM): 97.48
viability Average (SKMM2; SKMM2, 6 day, 30 uM): 64.98
viability Replicate 1 (SKMM2; SKMM2, 6 day, 30 uM): 81.69
viability Replicate 2 (SKMM2; SKMM2, 6 day, 30 uM): 45.98
viability Replicate 3 (SKMM2; SKMM2, 6 day, 30 uM): 67.29
viability Average (RPMI-8226): 101.19
viability Replicate 1 (RPMI-8226): 100.76
viability Replicate 2 (RPMI-8226): 100.18
viability Replicate 3 (RPMI-8226): 102.63

From paper PMC6917776, “Discovery of a chemical probe for PRDM9” (Nature Communications, 2019)
